Source: patent US20240287074A1, “SALTS AND CRYSTALS” (Kinoxis Therapeutics Pty Ltd, priority 2020, published 2024)
Structures can show the parent of a compound that is named as a salt. Where two headings read alike, the source gives them in different places.

How the values were obtained:
[1] = Solvent solubility screen of phosphate salt; assay type: physicochemical; settings: for solubility: read-out: Approx. Solubility
Description: Selected solvent was added in 50 μL aliquots to approximately 10 mg of poorly crystalline phosphate pattern (obtained from above lyophilisation). Between each addition, the mixture was checked for dissolution and where no dissolution was apparent, the mixture was heated to about 40° C. and checked again. This procedure was continued until dissolution was observed or until 2 mL of solvent had been added. Samples in which dissolution was observed were stored uncapped at ambient temperature to allow evaporation. Samples in which dissolution was not observed were filtered via centrifugation. All observed solids were analyzed by XRPD. The solvent systems used during the solvent solubility screen are detailed in Table 3.

[2] = Storage of phosphate pattern 2 at 40° C./75% RH; assay type: physicochemical; settings: about 16 hours
Description: The samples were analyzed by XRPD.

Cn1ncc2c1Nc1ccccc1NC2 [phosphate pattern 2, phosphoric acid addition salt of 1-methyl-1,4,5,10-tetrahydropyrazolo[3,4-b][1,5]benzodiazepine]
solubility ([1]; 1,4-dioxane, 40 °C, organic solvent or mixture, thermodynamic from solid, 1,4-Dioxane): < 5000 µg/mL
solubility ([1]; 2-Butanol, 40 °C, organic solvent or mixture, thermodynamic from solid, 2-Butanol): < 5000 µg/mL
solubility ([1]; 2-Ethoxyethanol, 40 °C, organic solvent or mixture, thermodynamic from solid, 2-Ethoxyethanol): < 5000 µg/mL
solubility ([1]; 2-methyl tetrahydrofuran, 40 °C, organic solvent or mixture, thermodynamic from solid, 2-Methyl tetrahydrofuran): < 5000 µg/mL
solubility ([1]; 2-propanol, 40 °C, organic solvent or mixture, thermodynamic from solid, 2-Propanol): < 5000 µg/mL
solubility ([1]; 80% 2-propanol/20% water (% v/v), 40 °C, organic solvent or mixture, thermodynamic from solid, 80% 2-Propanol/20% water (% v/v)): < 5000 µg/mL
solubility ([1]; 80% acetone/20% water (% v/v), 40 °C, organic solvent or mixture, thermodynamic from solid, 80% Acetone/20% water (% v/v)): < 5000 µg/mL
solubility ([1]; 80% acetonitrile/20% water (% v/v), 40 °C, organic solvent or mixture, thermodynamic from solid, 80% Acetonitrile/20% water (% v/v)): < 5000 µg/mL
solubility ([1]; 80% methanol/20% water (% v/v), 40 °C, organic solvent or mixture, thermodynamic from solid, 80% Methanol/20% water (% v/v)): < 5000 µg/mL
Approx. Solubility ([1]; N-Methyl pyrrolidone): 17000 µg/mL
solubility ([1]; N-methyl pyrrolidone, organic solvent or mixture, thermodynamic from solid, N-Methyl pyrrolidone): 10000 to 100000 µg/mL
Approx. Solubility ([1]; Water): 17000 µg/mL
solubility ([1]; acetone, 40 °C, organic solvent or mixture, thermodynamic from solid, Acetone): < 5000 µg/mL
solubility ([1]; acetonitrile, 40 °C, organic solvent or mixture, thermodynamic from solid, Acetonitrile): < 5000 µg/mL
solubility ([1]; anisole, 40 °C, organic solvent or mixture, thermodynamic from solid, Anisole): < 5000 µg/mL
solubility ([1]; chloroform, 40 °C, organic solvent or mixture, thermodynamic from solid, Chloroform): < 5000 µg/mL
solubility ([1]; ethanol, 40 °C, organic solvent or mixture, thermodynamic from solid, Ethanol): < 5000 µg/mL
solubility ([1]; ethanol/water Aw 0.4, 40 °C, organic solvent or mixture, thermodynamic from solid, Ethanol/water Aw 0.4): < 5000 µg/mL
solubility ([1]; ethanol/water Aw 0.5, 40 °C, organic solvent or mixture, thermodynamic from solid, Ethanol/water Aw 0.5): < 5000 µg/mL
solubility ([1]; ethanol/water Aw 0.6, 40 °C, organic solvent or mixture, thermodynamic from solid, Ethanol/water Aw 0.6): < 5000 µg/mL
solubility ([1]; ethanol/water Aw 0.7, 40 °C, organic solvent or mixture, thermodynamic from solid, Ethanol/water Aw 0.7): < 5000 µg/mL
solubility ([1]; ethanol/water Aw 0.8, 40 °C, organic solvent or mixture, thermodynamic from solid, Ethanol/water Aw 0.8): < 5000 µg/mL
solubility ([1]; ethyl acetate, 40 °C, organic solvent or mixture, thermodynamic from solid, Ethyl acetate): < 5000 µg/mL
solubility ([1]; ethyl formate, 40 °C, organic solvent or mixture, thermodynamic from solid, Ethyl formate): < 5000 µg/mL
solubility ([1]; ethyleneglycol, 40 °C, organic solvent or mixture, thermodynamic from solid, Ethyleneglycol): < 5000 µg/mL
solubility ([1]; isopropyl acetate, 40 °C, organic solvent or mixture, thermodynamic from solid, Isopropyl acetate): < 5000 µg/mL
solubility ([1]; methanol, 40 °C, organic solvent or mixture, thermodynamic from solid, Methanol): < 5000 µg/mL
solubility ([1]; methylethyl ketone, organic solvent or mixture, thermodynamic from solid, Methylethyl ketone): < 5000 µg/mL
solubility ([1]; methylisobutyl ketone, organic solvent or mixture, thermodynamic from solid, Methylisobutyl ketone): < 5000 µg/mL
solubility ([1]; nitromethane, organic solvent or mixture, thermodynamic from solid, Nitromethane): < 5000 µg/mL
solubility ([1]; tert-butylmethyl ether, organic solvent or mixture, thermodynamic from solid, tert-Butylmethyl ether): < 5000 µg/mL
solubility ([1]; tetrahydrofuran, organic solvent or mixture, thermodynamic from solid, Tetrahydrofuran): < 5000 µg/mL
solubility ([1]; water, thermodynamic from solid, Water): 10000 to 100000 µg/mL
form by XRPD upon storage at 40° C./75% RH [2]: completely converted to form 1
